Here are results for 27 compounds from patent US10336701B2, “Pyridin-2-one derivatives of formula (II) useful as EP3 receptor antagonists” (Janssen Pharmaceutica NV, priority 2017, dated 2019).

The target of assay [1] is T1, EP3 receptor (Homo sapiens, UniProt P43115).
T1 construct: purchased Millipore HTS092M
T1 sequence (P43115 1-390): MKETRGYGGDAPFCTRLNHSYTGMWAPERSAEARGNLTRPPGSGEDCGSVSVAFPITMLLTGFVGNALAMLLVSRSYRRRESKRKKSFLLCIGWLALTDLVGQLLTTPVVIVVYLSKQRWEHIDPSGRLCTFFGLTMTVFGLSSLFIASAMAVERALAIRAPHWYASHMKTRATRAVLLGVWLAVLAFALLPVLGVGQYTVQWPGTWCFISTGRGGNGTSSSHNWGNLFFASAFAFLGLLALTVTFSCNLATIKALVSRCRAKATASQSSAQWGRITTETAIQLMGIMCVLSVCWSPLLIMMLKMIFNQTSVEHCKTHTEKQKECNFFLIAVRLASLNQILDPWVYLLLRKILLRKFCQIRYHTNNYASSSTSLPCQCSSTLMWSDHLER
The assay is described as follows: [3H]-PGE2 binding assay (EP3 competition binding). Particulars: read-out: [3H]-PGE2 Binding Ki. The method in brief: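 Scintillation-bead competition binding with EP3 membranes (2 μg/well), 2 nM [3H]-PGE2, 0.1% DMSO, in 50 mM Tris, 10 mM MgCl2, 1 mM EDTA, pH 7.4.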

For assay [2], the target named is T1, EP3 receptor. The assay is described as follows: CHO cell cAMP assay (forskolin and sulprostone stimulated, HTRF). Format: cell-based. The settings on record: CHO cells; sulprostone 700 nM (EC80) and FSK 2 μM (EC70), 37° C. for 30 minutes; read-out: CHO_cAMP IC50. The procedure:
For detection, a homogeneous competitive immunoassay (Time Resolved Fluorescence Energy Transfer (hTR-FRET)) was used.
Cells (6K cells per well) were plated in Poly-D-Lysine coated plates the day before the assay was to be run and were incubated at 37° C. […] At the start of the assay the buffer was removed from the cells and replaced with buffer containing test compound(s). Sulprostone at an EC80 dose (700 nM) and FSK at an EC70 dose (2 μM) were added to initiate the reaction (37° C. for 30 minutes).
FSK increases cAMP production and sulprostone decreases cAMP production produced by FSK. In this assay, EP3 antagonists will increase the cAMP to the level of cAMP generated by FSK alone.
Approximately one hour later the plates were read on an Envision (Perkin Elmer) in HTRF mode.
NSP, NSN, NSsample were converted to nM cAMP using the following equation: […]
IC50 values were determined from a […] (Hill equation) of a single 11-point compound dosing.

A value given as a limit tells only on which side of the number the result lay.

Consider `CCn1ncc2c(F)cc(-c3ccc(C4(F)CCCN(S(=O)(=O)C(C)C)C4)c(=O)[nH]3)cc21` (stereo not drawn) [compound 296, 6-(1-ethyl-4-fluoro-1H-indazol-6-yl)-3-(3-fluoro-1-(isopropylsulfonyl)piperidin-3-yl)pyridin-2(1H)-one], for which the Ki at EP3 receptor [1] is 1 nM. The IC50 on EP3 receptor [2] amounted to 103 nM.

In the case of `CC(C)C(C)(C(N)=O)c1ccc(-c2ccc3ccccc3c2)[nH]c1=O` (stereo not drawn) [compound 232, 2,3-dimethyl-2-(6-(naphthalen-2-yl)-2-oxo-1,2-dihydropyridin-3-yl)butanamide], the Ki on EP3 receptor [1] was determined as 125 nM. Further, at EP3 receptor [2], the IC50 turned out to be 1630 nM.

Regarding `O=C1NC(=O)C(Cc2ccc(-c3ccc4cccc(F)c4c3)[nH]c2=O)O1` (stereo not drawn) [compound 252, 5-((6-(8-fluoronaphthalen-2-yl)-2-oxo-1,2-dihydropyridin-3-yl)methyl)oxazolidine-2,4-dione], the Ki at EP3 receptor [1] is 180 nM. Further, at EP3 receptor [2], the IC50 is 499 nM.

Consider `COc1ccc2cc(-c3ccc(C(C(=O)NCCN(C)C)C(C)C)c(=O)[nH]3)ccc2c1` (stereo not drawn) [compound 241], for which, at EP3 receptor [1], the Ki stood at 637 nM. Besides, on EP3 receptor [2], the IC50 was determined as 9630 nM.

Turning to `CC1(c2ccc(-c3ccc4ccccc4c3)[nH]c2=O)CNC(=S)N1` (stereo not drawn) [compound 286, 4-[2-hydroxy-6-(naphthalen-2-yl)pyridin-3-yl]-4-methylimidazolidine-2-thione], the Ki on EP3 receptor [1] worked out at 64 nM. The IC50 on EP3 receptor [2] was determined as 179 nM.

With `CC1(c2ccc(-c3ccc4ccccc4c3)[nH]c2=O)Cn2cnnc2N1` (stereo not drawn) [compound 167, 3-[6-methyl-5H,6H,7H-imidazo[2,1-c][1,2,4]triazol-6-yl]-6-(naphthalen-2-yl)-1,2-dihydropyridin-2-one], the Ki at EP3 receptor [1] turned out to be 151 nM. Also, the IC50 on EP3 receptor [2] came to 779 nM.

Take `CC(C)C(CC(=O)NS(C)(=O)=O)c1ccc(-c2ccc3ccccc3c2)[nH]c1=O` (stereo not drawn) [compound 250, 4-methyl-N-(methylsulfonyl)-3-(6-(naphthalen-2-yl)-2-oxo-1,2-dihydropyridin-3-yl)pentanamide]: the Ki on EP3 receptor [1] is 69 nM. Besides, the IC50 on EP3 receptor [2] turned out to be 931 nM.

Turning to `O=C1NC(=O)C2(CCC(c3ccc(-c4ccc5ccccc5c4)[nH]c3=O)CC2)N1` (stereo not drawn) [compound 203, 8-(6-(naphthalen-2-yl)-2-oxo-1,2-dihydropyridin-3-yl)-1,3-diazaspiro[4.5]decane-2,4-dione], the Ki at EP3 receptor [1] stood at 106 nM. The IC50 at EP3 receptor [2] amounted to 1410 nM.

As for `CCn1ncc2c(F)cc(-c3ccc(C4=CCN(S(=O)(=O)C(C)C)C4)c(=O)[nH]3)cc21` [compound 297, 6-(1-ethyl-4-fluoro-1H-indazol-6-yl)-3-(1-(isopropylsulfonyl)-2,5-dihydro-1H-pyrrol-3-yl)pyridin-2(1H)-one], the Ki on EP3 receptor [1] was determined as 8 nM. The IC50 on EP3 receptor [2] was 194 nM.

For the compound `O=C1NC(=O)C2(CCCC(c3ccc(-c4ccc5ccccc5c4)[nH]c3=O)C2)O1` (stereo not drawn) [compound 188, anti-7-(6-(naphthalen-2-yl)-2-oxo-1,2-dihydropyridin-3-yl)-1-oxa-3-azaspiro[4.5]decane-2,4-dione], the Ki on EP3 receptor [1] came to 15 nM. Also, at EP3 receptor [2], the IC50 worked out at 120 nM.

For the compound `CONC(=O)CC(c1ccc(-c2ccc3cccc(F)c3c2)[nH]c1=O)C(C)C` (stereo not drawn) [compound 257, 3-(6-(8-fluoronaphthalen-2-yl)-2-oxo-1,2-dihydropyridin-3-yl)-N-methoxy-4-methylpentanamide], the Ki on EP3 receptor [1] was found to be 2 nM. Further, the IC50 at EP3 receptor [2] stood at 23 nM.

For the compound `O=c1[nH]c(-c2ccc3ccccc3c2)ccc1C1CCc2n[nH]cc2C1` (stereo not drawn) [compound 195, 6-(naphthalen-2-yl)-3-(4,5,6,7-tetrahydro-2H-indazol-5-yl)pyridin-2(1H)-one], at EP3 receptor [1], the Ki amounted to 42 nM. Moreover, the IC50 at EP3 receptor [2] is 286 nM.

Regarding `O=C1NC(=O)/C(=C/C(c2ccc(-c3ccc4cccc(F)c4c3)[nH]c2=O)C2CC2)O1` (stereo not drawn) [compound 103, (Z)-5-(2-cyclopropyl-2-(6-(8-fluoronaphthalen-2-yl)-2-oxo-1,2-dihydropyridin-3-yl)ethylidene)oxazolidine-2,4-dione], the inhibition constant Ki at EP3 receptor [1] came to 22 nM. Further, the IC50 on EP3 receptor [2] amounted to 33 nM.

Take `O=C1NC(=O)/C(=C/C(c2ccc(-c3ccc4cccc(F)c4c3)[nH]c2=O)C2CCCC2)O1` (stereo not drawn) [compound 92, (Z)-5-(2-cyclopentyl-2-(6-(8-fluoronaphthalen-2-yl)-2-oxo-1,2-dihydropyridin-3-yl)ethylidene)oxazolidine-2,4-dione]: the inhibition constant (Ki) on EP3 receptor [1] is 9 nM. For the same compound, the IC50 at EP3 receptor [2] was found to be 7 nM.

For `CCN1CCOc2c(F)cc(-c3ccc(C(CN4CCS(=O)(=O)CC4)C(C)C)c(=O)[nH]3)cc21` (stereo not drawn) [Compound #129, 4-{2-[6-(4-ethyl-8-fluoro-2,3-dihydro-1,4-benzoxazin-6-yl)-2-oxo-1H-pyridin-3-yl]-3-methylbutyl}-1,4-thiomorpholine-1,1-dione], the Ki at EP3 receptor [1] was 6 nM. At EP3 receptor [2], the IC50 came to 149 nM.

Take `CCn1ncc2c(F)cc(-c3ccc(C(CC4OC(=O)NC4=O)C(C)C)c(=O)[nH]3)cc21` (stereo not drawn) [compound 87, 5-(2-(6-(1-ethyl-4-fluoro-1H-indazol-6-yl)-2-oxo-1,2-dihydropyridin-3-yl)-3-methylbutyl)oxazoli-dine-2,4-dione]: on EP3 receptor [1], the Ki is 32 nM. For the same compound, the IC50 on EP3 receptor [2] was determined as 149 nM.

For the compound `CCn1ncc2c(F)cc(-c3ccc(C4CCN(C(=O)CO)CC4)c(=O)[nH]3)cc21` [compound 197, 6-(1-ethyl-4-fluoro-1H-indazol-6-yl)-3-(1-(2-hydroxyacetyl)piperidin-4-yl)pyridin-2(1H)-one], the Ki on EP3 receptor [1] worked out at 169 nM. On EP3 receptor [2], the IC50 was found to be 967 nM.

As for `CC(C)C(Cc1ccc(-c2ccc3cccc(F)c3c2)[nH]c1=O)c1ncc[nH]1` (stereo not drawn) [compound 307, 3-(2-(1H-Imidazol-2-yl)-3-methylbutyl)-6-(8-fluoronaphthalen-2-yl)pyridin-2(1H)-one], the Ki on EP3 receptor [1] worked out at 53 nM. In addition, the IC50 at EP3 receptor [2] came to 385 nM.

`CC(C)C(O)(C(N)=O)c1ccc(-c2ccc3c(c2)OCCN3C)[nH]c1=O` (stereo not drawn) [compound 225, 2-hydroxy-3-methyl-2-(6-(4-methyl-3,4-dihydro-2H-benzo[b][1,4]oxazin-7-yl)-2-oxo-1,2-dihydropyridin-3-yl)butanamide]: on EP3 receptor [1], the Ki turned out to be 343 nM. Also, on EP3 receptor [2], the IC50 is 4570 nM.

As for `CC(C)C(Cc1cc(Cl)c(-c2ccc3cccc(F)c3c2)[nH]c1=O)c1noc(=O)[nH]1` (stereo not drawn) [Compound #272, 3-(1-(5-chloro-6-(8-fluoronaphthalen-2-yl)-2-oxo-1,2-dihydropyridin-3-yl)-3-methylbutan-2-yl)-1,2,4-oxadiazol-5(4H)-one], the inhibitory constant (Ki) at EP3 receptor [1] was more than 10000 nM. Further, the IC50 at EP3 receptor [2] was more than 20000 nM.

As for `O=C1NC(=O)[C@]2(CCC[C@H](c3ccc(-c4ccc5ccccc5c4)[nH]c3=O)C2)N1` (racemic) [compound 191, 7-(6-(naphthalen-2-yl)-2-oxo-1,2-dihydropyridin-3-yl)-1,3-diazaspiro[4.5]decane-2,4-dione], on EP3 receptor [1], the Ki is 5 nM. Moreover, the IC50 on EP3 receptor [2] came to 20 nM.

With `CC(C)C(/C=C1\OC(=O)NC1=O)c1ccc(-c2ccc3c(ccn3C)c2)[nH]c1=O` (stereo not drawn) [compound 118, (Z)-5-(3-methyl-2-(6-(1-methyl-1H-indol-5-yl)-2-oxo-1,2-dihydropyridin-3-yl)butylidene)oxazolidine-2,4-dione], the Ki on EP3 receptor [1] amounted to 44 nM. In addition, the IC50 on EP3 receptor [2] was 131 nM.

Consider `CCn1ncc2c(F)cc(-c3ccc(C4CCC5(CCCNC5=O)CC4)c(=O)[nH]3)cc21` (stereo not drawn) [compound 196, 9-(6-(1-ethyl-4-fluoro-1H-indazol-6-yl)-2-oxo-1,2-dihydropyridin-3-yl)-2-azaspiro[5.5]undecan-1-one], for which the Ki on EP3 receptor [1] amounted to 8 nM. Further, the IC50 at EP3 receptor [2] turned out to be 87 nM.

Regarding `CCn1ncc2c(F)cc(-c3ccc(C(CC)(CC)c4ncc[nH]4)c(=O)[nH]3)cc21` [compound 31, 6-(1-ethyl-4-fluoro-indazol-6-yl)-3-[1-ethyl-1-(1H-imidazol-2-yl)propyl]-1H-pyridin-2-one], at EP3 receptor [1], the Ki came to 37 nM. For the same compound, the IC50 at EP3 receptor [2] is 482 nM.

With `CCn1ncc2c(F)cc(-c3ccc(C(CC)(CC)c4noc(=O)[nH]4)c(=O)[nH]3)cc21` [Compound #4], on EP3 receptor [1], the inhibition constant Ki was determined as 88 nM. For the same compound, the IC50 at EP3 receptor [2] was determined as 1800 nM.

`CC(C)C(C(=O)NCCN(C)C)c1ccc(-c2ccc3cc(F)ccc3c2)[nH]c1=O` (stereo not drawn) [compound 242, N-(2-(dimethylamino)ethyl)-2-(6-(6-fluoronaphthalen-2-yl)-2-oxo-1,2-dihydropyridin-3-yl)-3-methylbutanamide]: the Ki at EP3 receptor [1] was determined as 398 nM. The IC50 on EP3 receptor [2] was determined as 3960 nM.

As to `O=c1[nH]c(-c2ccc3ccccc3c2)ccc1C1CCc2oncc2C1` (stereo not drawn) [compound 187, 6-(naphthalen-2-yl)-3-(4,5,6,7-tetrahydrobenzo[d]isoxazol-5-yl)pyridin-2(1H)-one], the Ki on EP3 receptor [1] was more than 10000 nM. The IC50 at EP3 receptor [2] is more than 20000 nM.

As a reminder, the Ki is the dissociation constant of the complex between target and ligand, obtained from inhibition or displacement. As a reminder, the IC50 is the point on the concentration scale where inhibition reaches its midpoint.
